Laboratory results as given in patent publication US6004976A, “Thrombin inhibitors” (Merck & Co., Inc., priority 1998, dated 1999).

The compounds below were run against T1, human α-thrombin (Homo sapiens, UniProt P00734) (assay: In vitro assay for determining proteinase inhibition (thrombin)). Settings: 25° C., 0.05 M TRIS buffer pH 7.4, 0.15 M NaCl, 0.1% PEG.
T1 construct: human α-thrombin
Format: biochemical
Description: In Vitro Assay for Determining Proteinase Inhibition
Assays of human α-thrombin and human trypsin were performed at 25° C. in 0.05 M TRIS buffer pH 7.4, 0.15 M NaCl, 0.1% PEG. Trypsin assays also contained 1 mM CaCl2.
In assays wherein rates of hydrolysis of a p-nitroanilide (pna) substrate were determined, a Thermomax 96-well plate reader was used to measure (at 405 nm) the time dependent appearance of p-nitroaniline. sar-PR-pna (sarcosine-Pro-Arg-p-nitroanilide) was used to assay human α-thrombin (Km=125 μM) and human trypsin (Km=59 μM). p-Nitroanilide substrate concentration was determined from measurements of absorbance at 342 nm using an extinction coefficient of 8270 cm-1M-1.
In certain studies with potent inhibitors (Ki<10 nM) where the degree of inhibition of thrombin was high, a more sensitive activity assay was employed. In this assay the rate of thrombin catalyzed hydrolysis of the fluorogenic substrate Z-GPR-afc (Cbz-Gly-Pro-Arg-7-amino-4-trifluoromethylcoumarin) (Km=27 μM) was determined from the increase in fluorescence at 500 nm (excitation at 400 nm) associated with production of 7-amino-4-trifluoromethyl coumarin. Concentrations of stock solutions of Z-GPR-afc were determined from measurements of absorbance at 380 nm of the 7-amino-4-trifluoromethyl coumarin produced upon complete hydrolysis of an aliquot of the stock solution by thrombin.
Activity assays were performed by diluting a stock solution of substrate at least tenfold to a final concentration≤0.5 Km into a solution containing enzyme or enzyme equilibrated with inhibitor. Times required to achieve equilibration between enzyme and inhibitor were determined in control experiments. Initial velocities of product formation in the absence (Vo) or presence of inhibitor (Vi) were measured. Assuming competitive inhibition, and that unity is negligible compared Km/[S], [I]/e, and [I]/e (where [S], [I], and e respectively represent the total concentrations, of substrate, inhibitor and enzyme), the equilibrium constant (Ki) for dissociation of the inhibitor from the enzyme can be obtained from the dependence of Vo/Vi on [I] shown in equation 1.

Structure (SMILES) | Ki [nM]
Cc1nc(N)ccc1CNC(=O)Cn1c(C)cc2c([nH]c(=O)n2[C@H](C)c2ccccc2)c1=O | > 10
Cc1nc(N)ccc1CNC(=O)Cn1c(C)cc2c([nH]c(=O)n2CC2CCCCC2)c1=O | > 10
Cc1nc(N)ccc1CNC(=O)Cn1c(C)cc2c([nH]c(=O)n2CC2CC2)c1=O | > 10
Cc1nc(N)ccc1CNC(=O)Cn1c(C)cc2c([nH]c(=O)n2CCC(C)(C)C)c1=O | > 10
Cc1cc2c([nH]c(=O)n2CCC(C)C)c(=O)n1CC(=O)NCc1ccccc1OCC(=O)NC1CC1 | > 10

The next lines start with the values.

Ki [nM] | Structure (SMILES)
< 10 | Cc1nc(N)ccc1CNC(=O)Cn1c(C)cc2c([nH]c(=O)n2CCC(C)C)c1=O
< 10 | Cc1nc(N)ccc1CNC(=O)Cn1c(C)cc2c([nH]c(=O)n2CCc2ccccn2)c1=O
< 10 | Cc1nc(N)ccc1CNC(=O)Cn1c(C)cc2c([nH]c(=O)n2CCc2ccccc2)c1=O
